Measured values as given in patent publication US20040106120A1, “Diagnosis and treatment of disease” (priority 2000, published 2004).

Tests used:
Envoplakin = target: T1, Envoplakin (Homo sapiens, UniProt Q92817); experiment: Cleavage of adhesion proteins from human epidermis by recombinant SCCE/SCTE (immunoblot); assay type: biochemical; conditions: human epidermis protein extract incubated with active recombinant enzyme at 37 C
T1 construct: The native form of Envoplakin has a molecular weight of between 124-209 kDa; from tissue; host or cells: human epidermis (TENP-40 buffer extract)
T1 sequence (Q92817 whole entry): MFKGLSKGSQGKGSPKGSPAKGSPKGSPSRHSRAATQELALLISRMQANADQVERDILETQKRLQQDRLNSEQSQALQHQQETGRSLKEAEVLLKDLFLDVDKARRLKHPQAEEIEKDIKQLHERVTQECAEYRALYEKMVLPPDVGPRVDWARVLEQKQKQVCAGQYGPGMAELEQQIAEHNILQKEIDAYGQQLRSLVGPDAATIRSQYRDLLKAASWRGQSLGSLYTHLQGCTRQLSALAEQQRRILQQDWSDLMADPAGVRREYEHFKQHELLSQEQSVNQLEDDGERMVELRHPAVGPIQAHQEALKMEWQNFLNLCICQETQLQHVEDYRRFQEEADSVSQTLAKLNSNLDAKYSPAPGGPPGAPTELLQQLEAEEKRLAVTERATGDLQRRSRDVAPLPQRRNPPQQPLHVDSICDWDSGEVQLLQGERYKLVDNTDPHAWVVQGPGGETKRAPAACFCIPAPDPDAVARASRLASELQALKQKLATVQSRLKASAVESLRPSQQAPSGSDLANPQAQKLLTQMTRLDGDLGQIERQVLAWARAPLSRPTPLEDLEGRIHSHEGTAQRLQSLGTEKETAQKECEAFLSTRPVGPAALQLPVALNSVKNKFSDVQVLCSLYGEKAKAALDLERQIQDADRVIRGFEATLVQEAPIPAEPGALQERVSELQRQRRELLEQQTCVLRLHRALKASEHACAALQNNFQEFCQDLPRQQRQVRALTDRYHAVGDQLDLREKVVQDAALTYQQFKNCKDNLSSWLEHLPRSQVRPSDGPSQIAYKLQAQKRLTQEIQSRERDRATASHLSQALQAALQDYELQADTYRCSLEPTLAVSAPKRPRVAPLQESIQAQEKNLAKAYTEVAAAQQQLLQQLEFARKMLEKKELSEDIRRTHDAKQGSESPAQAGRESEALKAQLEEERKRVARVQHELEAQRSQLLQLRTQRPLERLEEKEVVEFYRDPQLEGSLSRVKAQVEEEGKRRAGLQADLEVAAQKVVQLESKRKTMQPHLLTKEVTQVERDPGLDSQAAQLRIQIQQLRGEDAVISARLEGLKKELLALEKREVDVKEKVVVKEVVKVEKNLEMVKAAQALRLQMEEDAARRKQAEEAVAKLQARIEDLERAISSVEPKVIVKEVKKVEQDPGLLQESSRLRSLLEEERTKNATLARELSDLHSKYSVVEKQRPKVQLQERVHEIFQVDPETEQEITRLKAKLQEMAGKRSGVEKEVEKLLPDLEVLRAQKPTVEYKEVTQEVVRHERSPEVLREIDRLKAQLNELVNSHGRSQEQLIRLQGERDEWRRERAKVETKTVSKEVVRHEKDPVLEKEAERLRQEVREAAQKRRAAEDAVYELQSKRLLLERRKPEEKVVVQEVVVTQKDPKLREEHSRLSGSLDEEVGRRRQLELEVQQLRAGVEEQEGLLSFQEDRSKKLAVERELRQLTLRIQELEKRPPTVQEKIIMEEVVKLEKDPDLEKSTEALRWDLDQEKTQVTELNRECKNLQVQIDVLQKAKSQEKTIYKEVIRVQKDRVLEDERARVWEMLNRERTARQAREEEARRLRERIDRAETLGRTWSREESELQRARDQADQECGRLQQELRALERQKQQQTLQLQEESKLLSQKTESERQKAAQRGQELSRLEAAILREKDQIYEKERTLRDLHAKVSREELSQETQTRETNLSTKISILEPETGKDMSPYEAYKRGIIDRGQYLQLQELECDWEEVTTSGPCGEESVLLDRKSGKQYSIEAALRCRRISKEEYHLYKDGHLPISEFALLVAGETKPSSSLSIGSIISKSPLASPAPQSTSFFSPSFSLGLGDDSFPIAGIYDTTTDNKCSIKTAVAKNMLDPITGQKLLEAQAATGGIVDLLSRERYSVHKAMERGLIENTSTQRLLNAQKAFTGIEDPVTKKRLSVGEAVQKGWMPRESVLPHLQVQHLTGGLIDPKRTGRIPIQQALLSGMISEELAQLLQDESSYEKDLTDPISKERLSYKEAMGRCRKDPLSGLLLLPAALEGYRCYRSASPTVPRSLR
Description: (§1) Recombinant ProSCCE is produced and purified as described above. Recombinant ProSCCE is activated with agarose-bound trypsin, as described in Brasttsand & Egelrud, 1999.
(§2) Proteins are extracted from human epidermis in the presence of a detergent (TENP-40 buffer extract) and incubated with active SCCE for 37 C. for 4 h. The reactions are stopped by boiling for 2 mins after Laemmli's sample buffer is added. The proteins are immunoblotted with antibodies against corneodesmosomal proteins.

Plakoglobin = target: T2, Plakoglobin (Homo sapiens, UniProt P14923); experiment: as above; assay type: biochemical; conditions: human epidermis protein extract incubated with active recombinant enzyme at 37 C
T2 construct: The native form of plakoglobin has a molecular weight of between 85 kDa and 75 kDa; from tissue; host or cells: human epidermis (TENP-40 buffer extract)
T2 sequence (P14923 1-745): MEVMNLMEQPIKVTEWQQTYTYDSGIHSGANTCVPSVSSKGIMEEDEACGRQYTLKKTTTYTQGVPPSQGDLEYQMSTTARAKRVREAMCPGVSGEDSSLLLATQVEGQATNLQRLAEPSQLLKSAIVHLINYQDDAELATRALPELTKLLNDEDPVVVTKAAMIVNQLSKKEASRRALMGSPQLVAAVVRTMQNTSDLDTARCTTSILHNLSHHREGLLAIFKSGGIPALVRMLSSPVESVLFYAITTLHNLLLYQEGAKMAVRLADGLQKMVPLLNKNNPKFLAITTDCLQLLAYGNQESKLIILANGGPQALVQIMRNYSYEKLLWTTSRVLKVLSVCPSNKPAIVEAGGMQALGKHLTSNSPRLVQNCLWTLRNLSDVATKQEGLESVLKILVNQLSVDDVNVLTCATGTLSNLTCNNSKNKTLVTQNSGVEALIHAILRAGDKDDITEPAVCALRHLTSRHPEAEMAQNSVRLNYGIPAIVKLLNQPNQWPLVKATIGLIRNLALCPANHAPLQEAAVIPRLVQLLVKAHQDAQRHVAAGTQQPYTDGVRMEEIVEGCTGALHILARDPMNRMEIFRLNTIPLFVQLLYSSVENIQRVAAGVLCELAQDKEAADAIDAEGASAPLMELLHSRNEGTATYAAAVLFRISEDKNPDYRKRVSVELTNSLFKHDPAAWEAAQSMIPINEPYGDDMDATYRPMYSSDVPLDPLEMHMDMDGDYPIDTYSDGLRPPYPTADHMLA
Description: as §1, §2

Desmoglein = experiment: as above; assay type: biochemical; conditions: human epidermis protein extract incubated with active recombinant enzyme at 37 C
Description: as §1, §2

Desmoplakin = experiment: as above; assay type: biochemical; conditions: human epidermis protein extract incubated with active recombinant enzyme at 37 C
Description: as §1, §2

Corneodesmosin = target: T3, Corneodesmosin (Homo sapiens, UniProt Q15517); experiment: as above; assay type: biochemical; conditions: human epidermis protein extract incubated with active recombinant enzyme at 37 C
T3 construct: The native form of corneodesmosin has a molecular weight of between 50 and 56 kDa; from tissue; host or cells: human epidermis (TENP-40 buffer extract)
T3 sequence (Q15517 33-529): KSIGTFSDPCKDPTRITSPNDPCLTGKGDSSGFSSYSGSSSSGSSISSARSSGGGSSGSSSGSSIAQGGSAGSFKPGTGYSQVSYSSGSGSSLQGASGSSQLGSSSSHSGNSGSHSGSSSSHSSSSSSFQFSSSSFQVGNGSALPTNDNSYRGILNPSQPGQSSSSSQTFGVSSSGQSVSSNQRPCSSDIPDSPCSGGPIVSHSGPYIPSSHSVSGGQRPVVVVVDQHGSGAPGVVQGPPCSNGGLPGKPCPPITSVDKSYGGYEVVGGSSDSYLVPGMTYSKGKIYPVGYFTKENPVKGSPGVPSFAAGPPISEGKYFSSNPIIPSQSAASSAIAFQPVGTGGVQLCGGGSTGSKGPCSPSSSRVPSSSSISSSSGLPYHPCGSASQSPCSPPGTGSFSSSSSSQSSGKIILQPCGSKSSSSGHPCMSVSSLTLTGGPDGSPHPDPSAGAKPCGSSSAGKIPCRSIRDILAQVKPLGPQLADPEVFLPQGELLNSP
Description: as §1, §2

Desmocollin = experiment: as above; assay type: biochemical; conditions: human epidermis protein extract incubated with active recombinant enzyme at 37 C
Description: as §1, §2

[1] = system: corneodesmosomes in stratum corneum tape strips; experiment: Treatment of tape strips from psoriatic skin with proteases, corneodesmosome density by electron microscopy; parameters: species or system human; conditions: 22-50 nM recombinant SCCE or SCTE, 1-6 h at 37° C
Description: Tape strips are obtained according to a method described by Guerrin et al, 1998.
Small pieces of tape strips from control patients along with patients suffering from the skin conditions eczema, psoriasis, dermatitis and psoriasis are fixed for 2 h at 4° C. in Karnovsky fixative (2% paraformaldehyde, 2.5% gluteraldehyde in 0.1M phosphate buffer, pH 7.4). The samples are then washed three times in 0.1M phosphate buffer (pH7.4) containing 10% sucrose for 30 minutes each at 4° C.
Secondary fixation is carried out in aqueous 2% osmium tetroxide solution for 1 hour at room temperature. Dehydration is through a graded series of ethanol at room temperature (75% ethanol for 15 minutes; 95% ethanol for 15 minutes; 2 washes of 100% ethanol for 15 minutes; 100% ethanol dried over anhydrous copper sulphate for 15 minutes).
For resin embedding, samples are first placed in the intermediate solvent, propylene oxide, for two changes of 15 minutes duration. This is followed by infiltration in a 50:50 mixture of propylene oxide:araldite resin overnight at room temperature. […]
Ultrathin sections (70-90 nm) are cut on an ultramicrotome. […] Electron micrographs are recorded on Agfa Scientific 23D56 EM film.
Corneodesmosome density (area occupied by corneodesmosomes divided by total area of micrograph) is measured on electron micrographs of tape strips of each condition. […]

## SCTE: recombinant Stratum Corneum Tryptic Enzyme expressed in an active form
Envoplakin
  proteolysis of Envoplakin: proteolysed
Plakoglobin
  proteolysis of Plakoglobin: proteolysed
Desmoglein
  proteolysis of Desmoglein: proteolysed
Desmoplakin
  proteolysis of Desmoplakin: proteolysed
Corneodesmosin
  proteolysis of Corneodesmosin: proteolysed
Desmocollin
  proteolysis of Desmocollin: proteolysed
[1]
  number of corneodesmosomes in treated versus untreated stratum corneum: decrease significantly
